{
  "source": "patent US9981964B2",
  "about": "(Agency for Science, Technology and Research, priority 2013, dated 2018)",
  "key": {"HEK293-STF3A cells": {"test_system": "HEK293-STF3A cells", "experiment": "STF3A assay (STF luciferase reporter in Wnt3A-expressing HEK293 cells)", "assay_type": "cell-based", "details": "Homo sapiens, 24 h, 1 day of treatment", "method_in_brief": "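HEK293 cells carrying the STF reporter and expressing Wnt3A, seeded 2×10^4 per well overnight, then treated 1 day with compound at final 50 μM to 1.5 nM. Luciferase activity read by luminescence after Steady-Glo reagent, 10 min at room temperature.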"}, "mammalian PORCN": {"test_system": "mammalian PORCN", "experiment": "PORCN-null HT1080 cells transfected with mammalian PORCN, WNT3A and STF reporter, luciferase", "assay_type": "cell-based", "details": "STF luciferase, FIG. 1", "method": "PORCN-null HT1080 cells were transfected with mammalian or Xenopus PORCN expression plasmids, along with WNT3A, STF reporter and mCherry as transfection control. 6 hours after transfection, cells were treated with the compounds or DMSO as indicated, and the following day assayed for luciferase. Xenopus PORCN was resistant to the inhibitory effects of compounds."}, "MMTV-Wnt1 tumor": {"test_system": "MMTV-Wnt1 tumor", "assay_type": "in vivo, BALBc mice", "details": "daily treatment for 14 days, FIG. 2 and FIG. 3", "method": "8-10 weeks old Female BALBc mice were anesthetised with 150 mg/kg Ketamine +75 mg/kg Xylazine. Under aseptic conditions, skin near the 4th mammary fat pad was incised, Mammary fat pad was tweaked with forceps and tumor fragment ˜2 mm^3 was implanted. The incision was closed using a tissue adhesive. Animals were randomised into groups of eight and treated daily with the test compounds for 14 days. Tumors were measured in two dimensions using calipers, and volume was calculated using the formula: Tumor Volume (mm^3)=[…]. Maximum tumor volume limit was 2000 mm^3."}},
  "note": "pIC50: −log10 of the molar value.",
  "data": [
    {"smiles": "O=C(CN1CCCC2=C1C(=O)N(C1CC1)C2=O)Nc1ccc(-c2cccnc2)cn1", "note": "[Compound 14, N-([3,3′-bipyridin]-6-yl)-2-(6-cyclopropyl-5,7-dioxo-2,3,4,5,6,7-hexahydro-1 H-pyrrolo[3,4-b]pyridin-1-yl)acetamide]", "values": [
      {"measurement": "pIC50", "setting": "HEK293-STF3A cells", "value": "> 7.00"},
      {"measurement": "inhibition of the activity of mammalian porcupine", "setting": "mammalian PORCN", "value": "inhibit the activity of mammalian porcupine"}
    ]},
    {"smiles": "O=C(CN1CCCC2=C1C(=O)N(C1CC1)C2=O)Nc1ccc(-c2cncc(F)c2)nn1", "note": "[Compound 52, 2-(6-cyclopropyl-5,7-dioxo-2,3,4,5,6,7-hexahydro-1H-pyrrolo[3,4-b]pyridin-1-yl)-N-(6-(5-fluoropyridin-3-yl)pyridazin-3-yl)acetamide]", "values": [
      {"measurement": "pIC50", "setting": "HEK293-STF3A cells", "value": "> 7.00"},
      {"measurement": "tumor growth in treated mice", "setting": "MMTV-Wnt1 tumor", "value": "decreased tumor growth in all the treated mice"}
    ]},
    {"smiles": "Cc1cnc(-c2ccc(NC(=O)CN3CCCC4=C3C(=O)N(C)C4=O)nc2)cn1", "note": "[Compound 132, 2-(6-methyl-5,7-dioxo-2,3,4,5,6,7-hexahydro-1H-pyrrolo[3,4-b]pyridin-1-yl)-N-(5-(5-methylpyrazin-2-yl)pyridin-2-yl)acetamide]", "values": [
      {"measurement": "pIC50", "setting": "HEK293-STF3A cells", "value": "> 7.00"}
    ]},
    {"smiles": "CC(C(=O)Nc1ccc(-c2ccc(F)nc2)cn1)N1CCCC2=C1C(=O)N(C)C2=O", "note": "(centres unmarked) [Compound 96, N-(6′-fluoro-3,3′-bipyridin-6-yl)-2-(6-methyl-5,7-dioxo-2,3,4,5,6,7-hexahydro-1H-pyrrolo[3,4-b]pyridin-1-yl)propanamide]", "values": [
      {"measurement": "pIC50", "setting": "HEK293-STF3A cells", "value": "> 6.00"}
    ]},
    {"smiles": "Cc1cc(-c2ccccc2)ccc1NC(=O)CN1CCCC2=C1C(=O)N(C)C2=O", "note": "[Compound 78, 2-(6-methyl-5,7-dioxo-2,3,4,5,6,7-hexahydro-1H-pyrrolo[3,4-b]pyridin-1-yl)-N-(3-methyl-[1,1′-biphenyl]-4-yl)acetamide]", "values": [
      {"measurement": "pIC50", "setting": "HEK293-STF3A cells", "value": "< 5.00"}
    ]},
    {"smiles": "CC(C)N1C(=O)C2=C(C1=O)N(CC(=O)Nc1ccc(-c3ccccc3)nn1)CCC2", "note": "[Compound 33, 2-(6-isopropyl-5,7-dioxo-2,3,4,5,6,7-hexahydro-1H-pyrrolo[3,4-b]pyridin-1-yl)-N-(6-phenylpyridazin-3-yl)acetamide]", "values": [
      {"measurement": "pIC50", "setting": "HEK293-STF3A cells", "value": "> 7.00"}
    ]},
    {"smiles": "O=C(CN1CCCC2=C1C(=O)N(C1CC1)C2=O)Nc1ccc(-c2cc(F)ccn2)cn1", "note": "[Compound 156, 2-(6-cyclopropyl-5,7-dioxo-2,3,4,5,6,7-hexahydro-1H-pyrrolo[3,4-b]pyridin-1-yl)-N-(4-fluoro-[2,3′-bipyridin]-6′-yl)acetamide]", "values": [
      {"measurement": "pIC50", "setting": "HEK293-STF3A cells", "value": "> 7.00"}
    ]},
    {"smiles": "CN1C(=O)C2=C(C1=O)N(CC(=O)Nc1ccc(-c3ccc(C(F)(F)F)cc3)nn1)CCC2", "note": "[Compound 49, 2-(6-methyl-5,7-dioxo-2,3,4,5,6,7-hexahydro-1H-pyrrolo[3,4-b]pyridin-1-yl)-N-(6-(4-(trifluoromethyl)phenyl)pyridazin-3-yl)acetamide]", "values": [
      {"measurement": "pIC50", "setting": "HEK293-STF3A cells", "value": "> 5.00"}
    ]},
    {"smiles": "O=C(CN1CCCC2=C1C(=O)N(C1CCC1)C2=O)Nc1ccc(-c2ccccc2)nn1", "note": "[Compound 38, 2-(6-cyclobutyl-5,7-dioxo-2,3,4,5,6,7-hexahydro-1H-pyrrolo[3,4-b]pyridin-1-yl)-N-(6-phenylpyridazin-3-yl)acetamide]", "values": [
      {"measurement": "pIC50", "setting": "HEK293-STF3A cells", "value": "> 7.00"}
    ]},
    {"smiles": "CN1C(=O)C2=C(C1=O)N(CC(=O)Nc1ccc(-c3cccnc3)cc1)CCC2", "note": "[Compound 77, 2-(6-methyl-5,7-dioxo-2,3,4,5,6,7-hexahydro-1H-pyrrolo[3,4-b]pyridin-1-yl)-N-(4-(pyridin-3-yl)phenyl)acetamide]", "values": [
      {"measurement": "pIC50", "setting": "HEK293-STF3A cells", "value": "> 7.00"}
    ]},
    {"smiles": "Cc1ccc(-c2ccc(NC(=O)CN3CCCC4=C3C(=O)N(C3CC3)C4=O)nn2)cn1", "note": "[Compound 86, 2-(6-cyclopropyl-5,7-dioxo-2,3,4,5,6,7-hexahydro-1H-pyrrolo[3,4-b]pyridin-1-yl)-N-(6-(6-methylpyridin-3-yl)pyridazin-3-yl)acetamide]", "values": [
      {"measurement": "pIC50", "setting": "HEK293-STF3A cells", "value": "> 7.00"}
    ]},
    {"smiles": "COc1ccc(-c2ccc(NC(=O)CN3CCCC4=C3C(=O)N(C3CC3)C4=O)cn2)cn1", "note": "[Compound 145, 2-(6-cyclopropyl-5,7-dioxo-2,3,4,5,6,7-hexahydro-1H-pyrrolo[3,4-b]pyridin-1-yl)-N-(6′-methoxy-2,3′-bipyridin-5-yl)acetamide]", "values": [
      {"measurement": "pIC50", "setting": "HEK293-STF3A cells", "value": "> 7.00"}
    ]},
    {"smiles": "Cc1cccc(-c2ccc(NC(=O)CN3CCCC4=C3C(=O)N(C)C4=O)nc2)n1", "note": "[Compound 34, 2-(6-methyl-5,7-dioxo-2,3,4,5,6,7-hexahydro-1H-pyrrolo[3,4-b]pyridin-1-yl)-N-(6-methyl-[2,3′-bipyridin]-6′-yl)acetamide]", "values": [
      {"measurement": "pIC50", "setting": "HEK293-STF3A cells", "value": "> 7.00"}
    ]},
    {"smiles": "CN1C(=O)C2=C(C1=O)N(CC(=O)Nc1ccc(-c3cccnc3)nn1)CCC2", "note": "[Compound 25, 2-(6-methyl-5,7-dioxo-2,3,4,5,6,7-hexahydro-1H-pyrrolo[3,4-b]pyridin-1-yl)-N-(6-(pyridin-3-yl)pyridazin-3-yl)acetamide]", "values": [
      {"measurement": "pIC50", "setting": "HEK293-STF3A cells", "value": "> 7.00"}
    ]},
    {"smiles": "O=C(CN1CCCC2=C1C(=O)N(C1CC1)C2=O)Nc1ccc(-c2ccc(F)nc2)nc1", "note": "[Compound 124, 2-(6-cyclopropyl-5,7-dioxo-2,3,4,5,6,7-hexahydro-1H-pyrrolo[3,4-b]pyridin-1-yl)-N-(6′-fluoro-[2,3′-bipyridin]-5-yl)acetamide]", "values": [
      {"measurement": "pIC50", "setting": "HEK293-STF3A cells", "value": "> 7.00"}
    ]},
    {"smiles": "Cc1ccc(-c2ccc(NC(=O)CN3CCCC4=C3C(=O)N(C)C4=O)nc2)cn1", "note": "[Compound 39, 2-(6-methyl-5,7-dioxo-2,3,4,5,6,7-hexahydro-1H-pyrrolo[3,4-b]pyridin-1-yl)-N-(6′-methyl-[3,3′-bipyridin]-6-yl)acetamide]", "values": [
      {"measurement": "pIC50", "setting": "HEK293-STF3A cells", "value": "> 7.00"}
    ]},
    {"smiles": "CN1C(=O)C2=C(C1=O)N(CC(=O)Nc1ccc(-c3ncccn3)cc1)CCC2", "note": "[Compound 74, 2-(6-methyl-5,7-dioxo-2,3,4,5,6,7-hexahydro-1H-pyrrolo[3,4-b]pyridin-1-yl)-N-(4-(pyrimidin-2-yl)phenyl)acetamide]", "values": [
      {"measurement": "pIC50", "setting": "HEK293-STF3A cells", "value": "> 6.00"}
    ]},
    {"smiles": "CN1C(=O)C2=C(C1=O)N(CC(=O)Nc1ccc(-c3ccccc3)nc1)CCC2", "note": "[Compound 37, 2-(6-methyl-5,7-dioxo-2,3,4,5,6,7-hexahydro-1H-pyrrolo[3,4-b]pyridin-1-yl)-N-(6-phenylpyridin-3-yl)acetamide]", "values": [
      {"measurement": "pIC50", "setting": "HEK293-STF3A cells", "value": "> 7.00"}
    ]},
    {"smiles": "CN1C(=O)C2=C(C1=O)N(CC(=O)Nc1ccc(-c3ccccn3)cn1)CCC2", "note": "[Compound 1, N-([2,3′-bipyridin]-6′-yl)-2-(6-methyl-5,7-dioxo-2,3,4,5,6,7-hexahydro-1H-pyrrolo[3,4-b]pyridin-1-yl)acetamide]", "values": [
      {"measurement": "pIC50", "setting": "HEK293-STF3A cells", "value": "> 7.00"}
    ]},
    {"smiles": "Cc1ccc(-c2ccc(NC(=O)CN3CCCC4=C3C(=O)N(C)C4=O)cn2)cc1", "note": "[Compound 158, 2-(6-methyl-5,7-dioxo-2,3,4,5,6,7-hexahydro-1H-pyrrolo[3,4-b]pyridin-1-yl)-N-(6-(p-tolyl)pyridin-3-yl)acetamide]", "values": [
      {"measurement": "pIC50", "setting": "HEK293-STF3A cells", "value": "> 7.00"}
    ]},
    {"smiles": "Cc1cccc(-c2ccc(NC(=O)CN3CCCC4=C3C(=O)N(C)C4=O)nn2)c1", "note": "[Compound 29, 2-(6-methyl-5,7-dioxo-2,3,4,5,6,7-hexahydro-1H-pyrrolo[3,4-b]pyridin-1-yl)-N-(6-(m-tolyl)pyridazin-3-yl)acetamide]", "values": [
      {"measurement": "pIC50", "setting": "HEK293-STF3A cells", "value": "> 7.00"}
    ]},
    {"smiles": "C[C@H](C(=O)Nc1ccc(-c2cccnc2)cn1)N1CCCC2=C1C(=O)N(C)C2=O", "note": "(single isomer, unassigned) [Compound 93]", "values": [
      {"measurement": "pIC50", "setting": "HEK293-STF3A cells", "value": "> 6.00"}
    ]},
    {"smiles": "CN1C(=O)C2=C(C1=O)N(CC(=O)Nc1ccc(-c3cccnn3)cc1)CCC2", "note": "[Compound 47, 2-(6-methyl-5,7-dioxo-2,3,4,5,6,7-hexahydro-1H-pyrrolo[3,4-b]pyridin-1-yl)-N-(4-(pyridazin-3-yl)phenyl)acetamide]", "values": [
      {"measurement": "pIC50", "setting": "HEK293-STF3A cells", "value": "> 6.00"}
    ]},
    {"smiles": "Cc1cncc(-c2ccc(NC(=O)CN3CCCC4=C3C(=O)N(C)C4=O)nc2)n1", "note": "[Compound 129, 2-(6-methyl-5,7-dioxo-2,3,4,5,6,7-hexahydro-1H-pyrrolo[3,4-b]pyridin-1-yl)-N-(5-(6-methylpyrazin-2-yl)pyridin-2-yl)acetamide]", "values": [
      {"measurement": "pIC50", "setting": "HEK293-STF3A cells", "value": "> 7.00"}
    ]},
    {"smiles": "O=C(CN1CCCC2=C1C(=O)N(C1CC1)C2=O)Nc1ccc(-c2cccnc2)nc1F", "note": "[Compound 137]", "values": [
      {"measurement": "pIC50", "setting": "HEK293-STF3A cells", "value": "> 7.00"}
    ]},
    {"smiles": "CN1C(=O)C2=C(C1=O)N(CC(=O)Nc1ccc(-c3cccnc3)cn1)CCC2", "note": "[Compound 8, N-([3,3′-bipyridin]-6-yl)-2-(6-methyl-5,7-dioxo-2,3,4,5,6,7-hexahydro-1H-pyrrolo[3,4-b]pyridin-1-yl)acetamide]", "values": [
      {"measurement": "pIC50", "setting": "HEK293-STF3A cells", "value": "> 7.00"}
    ]},
    {"smiles": "Cc1cncc(-c2ccc(NC(=O)CN3CCCC4=C3C(=O)N(C)C4=O)nn2)c1", "note": "[Compound 41, 2-(6-methyl-5,7-dioxo-2,3,4,5,6,7-hexahydro-1H-pyrrolo[3,4-b]pyridin-1-yl)-N-(6-(5-methylpyridin-3-yl)pyridazin-3-yl)acetamide]", "values": [
      {"measurement": "pIC50", "setting": "HEK293-STF3A cells", "value": "> 7.00"}
    ]}
  ]
}
